Data taken from patent US8680139B2 (Progenra, priority 2009, dated 2014).

Molecular target: T1, USP7 (Homo sapiens, UniProt Q93009)
T1 construct: full length human USP7 protein; made in house
Experiment: USP7, Ub-PLA2 assay
Format: biochemical
Conditions: Ub-PLA2 / NBD C6-HPC fluorescence, 30 minute preincubation; read-out: EC50 for inhibition of USP7
Experimental: The purpose of this assay is to measure the inhibition of USP7 by various compounds of the invention synthesized according to the above-described methods. […] The vehicle control was 100% (v/v) DMSO. 1.6 μL aliquots of the diluted test compound and controls were dispensed into individual wells in a black walled 96 well plate. […] The data were normalized within a plate relative to the control wells using the equation % inhibition=(100−(((RFUcompound−RFUmean NEM) / (RFUmean DMSO−RFUmean NEM))×100)).

T1 sequence (Q93009 whole entry): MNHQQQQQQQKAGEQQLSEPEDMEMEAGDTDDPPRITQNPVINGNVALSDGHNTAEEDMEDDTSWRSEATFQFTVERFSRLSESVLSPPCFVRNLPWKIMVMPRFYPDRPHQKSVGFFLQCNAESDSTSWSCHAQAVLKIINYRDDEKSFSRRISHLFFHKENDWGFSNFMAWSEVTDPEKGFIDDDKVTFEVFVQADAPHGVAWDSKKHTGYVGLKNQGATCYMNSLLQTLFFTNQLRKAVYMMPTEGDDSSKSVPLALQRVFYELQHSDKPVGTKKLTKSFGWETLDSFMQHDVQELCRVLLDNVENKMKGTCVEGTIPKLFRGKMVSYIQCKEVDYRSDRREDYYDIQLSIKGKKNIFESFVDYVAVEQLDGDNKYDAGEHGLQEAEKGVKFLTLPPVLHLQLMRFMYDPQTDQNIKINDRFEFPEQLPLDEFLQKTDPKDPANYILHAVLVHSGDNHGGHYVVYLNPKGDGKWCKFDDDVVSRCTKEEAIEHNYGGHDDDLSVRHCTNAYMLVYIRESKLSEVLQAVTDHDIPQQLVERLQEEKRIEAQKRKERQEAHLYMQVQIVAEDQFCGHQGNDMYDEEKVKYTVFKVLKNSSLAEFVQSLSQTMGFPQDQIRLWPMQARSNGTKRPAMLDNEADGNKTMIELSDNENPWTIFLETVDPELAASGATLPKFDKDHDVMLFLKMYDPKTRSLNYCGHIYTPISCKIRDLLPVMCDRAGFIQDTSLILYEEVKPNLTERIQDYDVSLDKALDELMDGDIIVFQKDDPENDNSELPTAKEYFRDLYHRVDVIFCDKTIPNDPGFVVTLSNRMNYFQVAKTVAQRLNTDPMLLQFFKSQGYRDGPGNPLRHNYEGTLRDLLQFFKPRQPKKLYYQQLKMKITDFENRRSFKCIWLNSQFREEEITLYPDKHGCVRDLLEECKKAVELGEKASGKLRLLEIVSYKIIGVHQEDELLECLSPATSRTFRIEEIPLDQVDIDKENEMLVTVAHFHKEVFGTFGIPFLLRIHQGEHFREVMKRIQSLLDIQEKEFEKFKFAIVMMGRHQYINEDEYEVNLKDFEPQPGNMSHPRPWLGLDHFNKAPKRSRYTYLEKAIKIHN

Row | EC50 | Structure (SMILES)
1 | ≤ 1 µM | COc1ccccc1CCNC(=O)c1cc([N+](=O)[O-])c(Sc2c(Cl)cncc2Cl)s1 [Example 113, 5-((3,5-dichloropyridin-4-yl)thio)-N-(2-methoxyphenethyl)-4-nitrothiophene-2-carboxamide]
2 | ≤ 1 µM | O=C(Nc1cccc(Cl)c1)c1cc([N+](=O)[O-])c(Sc2c(Cl)cncc2Cl)s1 [Example 142, N-(3-chlorophenyl)-5-((3,5-dichloropyridin-4-yl)thio)-4-nitrothiophene-2-carboxamide]
3 | ≤ 1 µM | O=C(NC1CCNCC1)c1cc([N+](=O)[O-])c(Sc2c(Cl)cncc2Cl)s1 [Example 196, 5-((3,5-dichloropyridin-4-yl)thio)-4-nitro-N-(piperidin-4-yl)thiophene-2-carboxamide]
4 | 1 to 10 µM | O=C(c1cc([N+](=O)[O-])c(Sc2c(Cl)cncc2Cl)s1)N1CCC(F)CC1 [Example 74, (5-((3,5-dichloropyridin-4-yl)thio)-4-nitrothiophen-2-yl)(4-fluoropiperidin-1-yl)methanone]
5 | ≤ 1 µM | CSc1ccc(CNC(=O)c2cc([N+](=O)[O-])c(Sc3c(Cl)cncc3Cl)s2)cc1 [Example 264, 5-((3,5-dichloropyridin-4-yl)thio)-N-(4-(methylthio)benzyl)-4-nitrothiophene-2-carboxamide]
6 | > 10 µM | O=C(NC12CC3CC(CC(C3)C1)C2)c1cc([N+](=O)[O-])c(Sc2c(Cl)cncc2Cl)s1 [Example 76, N-((3s,5s,7s)-adamantan-1-yl)-5-((3,5-dichloropyridin-4-yl)thio)-4-nitrothiophene-2-carboxamide]
7 | ≤ 1 µM | O=C(NCc1ccc(F)cc1)c1cc([N+](=O)[O-])c(Sc2c(Cl)cncc2Cl)s1 [Example 107, 5-((3,5-dichloropyridin-4-yl)thio)-N-(4-fluorobenzyl)-4-nitrothiophene-2-carboxamide]
8 | 1 to 10 µM | CC(C)(C)OC(=O)CNC(=O)c1cc([N+](=O)[O-])c(Sc2c(Cl)cncc2Cl)s1 [Example 62, tert-butyl 2-(5-((3,5-dichloropyridin-4-yl)thio)-4-nitrothiophene-2-carboxamido)acetate]
9 | 1 to 10 µM | CC(=O)c1cc([N+](=O)[O-])c(Sc2cc(C(F)(F)F)cc(C(F)(F)F)c2)s1 [Example 40, 1-[5-[3,5-bis(trifluoromethyl)phenyl]sulfanyl-4-nitro-2-thienyl]ethanone]
10 | 1 to 10 µM | CC(=O)c1cc([N+](=O)[O-])c(Sc2cnc3ccccc3n2)s1 [Example 37, 1-(4-nitro-5-quinoxalin-2-ylsulfanyl-2-thienyl)ethanone]
11 | ≤ 1 µM | O=C(NCCCN1CCCC1=O)c1cc([N+](=O)[O-])c(Sc2c(Cl)cncc2Cl)s1 [Example 104, 5-((3,5-dichloropyridin-4-yl)thio)-4-nitro-N-(3-(2-oxopyrrolidin-1-yl)propyl)thiophene-2-carboxamide]
12 | 1 to 10 µM | CN1CCC(NC(=O)c2cc([N+](=O)[O-])c(Sc3ccc(Cl)cc3Cl)s2)CC1 [Example 81, 5-((2,4-dichlorophenyl)thio)-N-(1-methylpiperidin-4-yl)-4-nitrothiophene-2-carboxamide]
13 | ≤ 1 µM | CC(=O)c1ccc(NC(=O)c2cc([N+](=O)[O-])c(Sc3c(Cl)cncc3Cl)s2)cc1 [Example 183, N-(4-acetylphenyl)-5-((3,5-dichloropyridin-4-yl)thio)-4-nitrothiophene-2-carboxamide]
14 | ≤ 1 µM | COc1cc(NC(=O)c2cc([N+](=O)[O-])c(Sc3c(Cl)cncc3Cl)s2)cc(OC)c1OC [Example 169, 5-((3,5-dichloropyridin-4-yl)thio)-4-nitro-N-(3,4,5-trimethoxyphenyl)thiophene-2-carboxamide]
15 | ≤ 1 µM | O=C(Nc1ccc(F)c(Cl)c1)c1cc([N+](=O)[O-])c(Sc2c(Cl)cncc2Cl)s1 [Example 137, N-(3-chloro-4-fluorophenyl)-5-((3,5-dichloropyridin-4-yl)thio)-4-nitrothiophene-2-carboxamide]
16 | 1 to 10 µM | CN(C)C(=O)c1cc([N+](=O)[O-])c(Sc2c(Cl)cncc2Cl)s1 [Example 49, 5-[(3,5-dichloro-4-pyridyl)sulfanyl]-N,N-dimethyl-4-nitro-thiophene-2-carboxamide]
17 | 1 to 10 µM | CN(C)CCCOc1ccc(NC(=O)c2cc(C#N)c(Sc3c(Cl)cncc3Cl)s2)cc1 [Example 204]
18 | ≤ 1 µM | O=C(NCc1cccnc1)c1cc([N+](=O)[O-])c(Sc2c(Cl)cncc2Cl)s1 [Example 101, 5-((3,5-dichloropyridin-4-yl)thio)-4-nitro-N-(pyridin-3-ylmethyl)thiophene-2-carboxamide]
19 | ≤ 1 µM | O=C(NCc1ccc(Br)cc1)c1cc([N+](=O)[O-])c(Sc2c(Cl)cncc2Cl)s1 [Example 118, N-(4-bromobenzyl)-5-((3,5-dichloropyridin-4-yl)thio)-4-nitrothiophene-2-carboxamide]
20 | ≤ 1 µM | CN(C)CCC(NC(=O)c1cc([N+](=O)[O-])c(Sc2c(Cl)cncc2Cl)s1)c1ccccc1 (stereo not shown) [Example 200, 5-((3,5-dichloropyridin-4-yl)thio)-N-(3-(dimethylamino)-1-phenylpropyl)-4-nitrothiophene-2-carboxamide]

Continued, compound first:

Row | Structure (SMILES) | EC50
21 | O=C(Nc1cc(C(F)(F)F)n[nH]1)c1cc([N+](=O)[O-])c(Sc2c(Cl)cncc2Cl)s1 [Example 164, 5-((3,5-dichloropyridin-4-yl)thio)-4-nitro-N-(3-(trifluoromethyl)-1H-pyrazol-5-yl)thiophene-2-carboxamide] | ≤ 1 µM
22 | CN1CCCC(NC(=O)c2cc([N+](=O)[O-])c(Sc3c(Cl)cncc3Cl)s2)C1 (stereo not shown) [Example 189, 5-((3,5-dichloropyridin-4-yl)thio)-N-(1-methylpiperidin-3-yl)-4-nitrothiophene-2-carboxamide] | ≤ 1 µM
23 | O=C(NCCCN1CCCCC1)c1cc([N+](=O)[O-])c(Sc2c(Cl)cncc2Cl)s1 [Example 100, 5-((3,5-dichloropyridin-4-yl)thio)-4-nitro-N-(3-(piperidin-1-yl)propyl)thiophene-2-carboxamide] | ≤ 1 µM
24 | CCN1C[C@H](NC(=O)c2cc([N+](=O)[O-])c(Sc3c(Cl)cncc3Cl)s2)[C@@H](OC)C1 [Example 92, 5-((3,5-dichloropyridin-4-yl)thio)-N-((3S,4S)-1-ethyl-4-methoxypyrrolidin-3-yl)-4-nitrothiophene-2-carboxamide] | 1 to 10 µM
25 | O=C(NCCC1CCN(Cc2ccccc2)C1)c1cc([N+](=O)[O-])c(Sc2c(Cl)cncc2Cl)s1 (stereo not shown) [Example 84, N-(2-(1-benzylpyrrolidin-3-yl)ethyl)-5-((3,5-dichloropyridin-4-yl)thio)-4-nitrothiophene-2-carboxamide] | > 10 µM
26 | O=C(c1cc([N+](=O)[O-])c(Sc2c(Cl)cncc2Cl)s1)N1CCCC(O)C1 (stereo not shown) [Example 83, (5-((3,5-dichloropyridin-4-yl)thio)-4-nitrothiophen-2-yl)(3-hydroxypiperidin-1-yl)methanone] | 1 to 10 µM
27 | O=C(NCCCN1CCCCC1)c1cc([N+](=O)[O-])c(Sc2ccc(F)cc2F)s1 [Example 267, 5-((2,4-difluorophenyl)thio)-4-nitro-N-(3-(piperidin-1-yl)propyl)thiophene-2-carboxamide] | > 10 µM
28 | COCCCNC(=O)CNC(=O)c1cc([N+](=O)[O-])c(Sc2c(Cl)cncc2Cl)s1 [Example 213, 5-((3,5-dichloropyridin-4-yl)thio)-N-(2-((3-methoxypropyl)amino)-2-oxoethyl)-4-nitrothiophene-2-carboxamide] | 1 to 10 µM
29 | O=C(NCC(O)CN1CCCCC1)c1cc([N+](=O)[O-])c(Sc2c(Cl)cncc2Cl)s1 (stereo not shown) [Example 241, 5-((3,5-dichloropyridin-4-yl)thio)-N-(2-hydroxy-3-(piperidin-1-yl)propyl)-4-nitrothiophene-2-carboxamide] | 1 to 10 µM
30 | CCOc1cccc(CNC(=O)c2cc([N+](=O)[O-])c(Sc3c(Cl)cncc3Cl)s2)c1 [Example 149, 5-((3,5-dichloropyridin-4-yl)thio)-N-(3-ethoxybenzyl)-4-nitrothiophene-2-carboxamide] | ≤ 1 µM
31 | CN1CCC(NS(=O)(=O)c2cc([N+](=O)[O-])c(Sc3c(Cl)cncc3Cl)s2)CC1 [Example 246, 5-((3,5-dichloropyridin-4-yl)thio)-N-(1-methylpiperidin-4-yl)-4-nitrothiophene-2-sulfonamide] | 1 to 10 µM
32 | CN1CCC(NC(=O)CNC(=O)c2cc([N+](=O)[O-])c(Sc3c(Cl)cncc3Cl)s2)CC1 [Example 222, 5-((3,5-dichloropyridin-4-yl)thio)-N-(2-((1-methylpiperidin-4-yl)amino)-2-oxoethyl)-4-nitrothiophene-2-carboxamide] | ≤ 1 µM
33 | NC(=O)C1CCN(CCCNC(=O)c2cc([N+](=O)[O-])c(Sc3c(Cl)cncc3Cl)s2)CC1 [Example 226, 1-(3-(5-((3,5-dichloropyridin-4-yl)thio)-4-nitrothiophene-2-carboxamido)propyl)piperidine-4-carboxamide] | ≤ 1 µM
34 | O=C(NCCCN1CCCC1=O)c1cc([N+](=O)[O-])c(Sc2ccc(Cl)cc2Cl)s1 [Example 82, 5-((2,4-dichlorophenyl)thio)-4-nitro-N-(3-(2-oxopyrrolidin-1-yl)propyl)thiophene-2-carboxamide] | 1 to 10 µM
35 | COC(=O)c1cc([N+](=O)[O-])c(Sc2c(F)cncc2F)s1 [Example 255, Methyl 5-((3,5-difluoropyridin-4-yl)thio)-4-nitrothiophene-2-carboxylate] | 1 to 10 µM
36 | CC(C)CCNC(=O)c1cc([N+](=O)[O-])c(Sc2c(Cl)cncc2Cl)s1 [Example 110, 5-((3,5-dichloropyridin-4-yl)thio)-N-isopentyl-4-nitrothiophene-2-carboxamide] | ≤ 1 µM
37 | CC(=O)c1cc([N+](=O)[O-])c(Sc2cccc(Cl)c2)s1 [Example 6, 1-[5-(3-Chlorophenylsulfanyl)-4-nitro-2-thienyl]ethanone] | 1 to 10 µM
